Laboratory results reported in patent US20030153513A1, “Preventives or remedies for obesity or fatty liver” (priority 2000, published 2003).

Tests used:
Assay type in all cases: in vivo
KKA^y/Ta Jcl mice [1] = assay: Test Example 1: body weight increase, obesity model mice, 12 weeks oral; details: 10 mg/kg/day oral, FIG. 1-B
Description: (§1) In the test example, each 10 of the male KKA^y/Ta Jcl mice and C57BL/6J mice aged 10 weeks were used as obesity model mice and non-obesity normal model mice, respectively. The compound of Preparation 1 was orally administered to the animals at 10 mg/kg/day for 12 weeks continuously, and the body weights of the animals were daily measured. Four hours after the final administration of the compound, the animals were sacrificed, and the levels of triglyceride in the liver tissues were determined.
(§2) The compound of Preparation 1 had been suspended in an aqueous solution of 5% gum arabic (Nakarai Chemcial, Lot. M5E5329) to provide a 0.1% suspension for use. As a control, only a vehicle (5% aqueous gum arabic solution) was administered as well, and the triglyceride level was also determined.

KKAy/Ta Jcl mice = assay: Test Example 2: triglyceride level in liver tissue, obesity model mice, 2 weeks
Description: In a similar way to Test Example 1, the male KKAy/Ta Jcl mice aged 10 weeks were orally administered with the compound of Preparation 1 at 10 mg/kg/day, and fed a diet containing 3% cholestyramine (corresponding to about 4 g/kg/day) for two weeks continuously, and the level of triglyceride in the liver tissue was determined (eight animals per group). Also, the control was administered with only a vehicle (5% aqueous gum arabic solution).

C57BL/6J mice [2] = assay: Test Example 1: triglyceride level in liver tissue, normal mice, 12 weeks oral; details: oral administration for 12 weeks, 10 mg/kg/day, 4 h after final dose
Description: as §1, §2

KKA^y/Ta Jcl mice [3] = assay: Test Example 1: triglyceride level in liver tissue, obesity model mice, 12 weeks oral; details: 10 mg/kg/day
Description: as §1, §2

C57BL/6J mice [4] = assay: Test Example 1: body weight increase, non-obesity normal mice, 12 weeks oral; details: non-obesity normal C57BL/6J mice, 10 mg/kg/day oral, FIG. 1-A
Description: as §1, §2

## CCC(CC)CC(=O)c1c(C(=O)OC)c(-c2ccc(OC)c(OC)c2)c2c(OC)c(OC)c(OC)cc2c1O [Compound of Prep. 1, Methyl 1-(3,4-dimethoxyphenyl)-3-(3-ethylvalelyl)-4-hydroxy-6,7,8-trimethoxy-2-naphthoate]
KKA^y/Ta Jcl mice [1]
  inhibition of weight gain: significant inhibition of weight gain
KKAy/Ta Jcl mice; 2 weeks, as shown in Table 2
  triglyceride level in the liver tissue compared to the control (in words): significant decrease
KKAy/Ta Jcl mice; administration for 2 weeks, Prep. 1 10 mg/kg/day oral, cholestyramine 3% in diet (about 4 g/kg/day)
  triglyceride (liver tissue): 49.2 ± 7.7 mg/g
C57BL/6J mice [2]
  triglyceride (liver tissue): 13.2 ± 1.2 mg/g
KKA^y/Ta Jcl mice [3]; 12 weeks oral, as shown in Table 1
  triglyceride level in the liver tissue compared to the control (in words): significant decrease
KKA^y/Ta Jcl mice [3]; KKA^y mice, oral administration for 12 weeks, 4 h after final dose
  triglyceride (liver tissue): 74.7 ± 7.4 mg/g
C57BL/6J mice [4]
  rate of increase in body weight compared with the control: no significant difference
